The record followed here is ChEMBL document CHEMBL1144691, “Antiproliferative cassane diterpenoids of Cordyla madagascariensis ssp. madagascariensis from the Madagascar rainforest” (J Nat Prod, 2008).

Some results are limits rather than exact numbers.

The term IC50 denotes the midpoint of a concentration-inhibition curve. High values mean weaker potency in that assay, low ones greater potency in that assay.

For the test, the system named is A2780. The test can be described thus: Antiproliferative activity against human A2780 cells. In kind it is functional, cell-based.
For the compound `CC(=O)OC[C@@]1(CO)CCC[C@]2(C)[C@H]3Cc4occc4[C@H](C)[C@@H]3C[C@@H](OC(C)=O)[C@@H]12` [CORDYLANE A], half-maximal inhibition (IC50) required 10 µM. The same measure for `CC(=O)OC[C@]1(CO)CCC[C@]2(C)[C@H]3Cc4occc4[C@H](C)[C@@H]3C[C@@H](OC(C)=O)[C@@H]12` [CORDYLANE B]: 36 µM; for `C[C@H]1c2ccoc2C[C@H]2[C@H]1CC[C@H]1[C@@](CO)(C(=O)O)CCC[C@]21C` [CORDYLANE C]: > 60 µM; for `C=C1c2ccoc2C[C@H]2[C@H]1CC[C@H]1[C@@](CO)(C(=O)O)CCC[C@]21C` [CORDYLANE D]: > 60 µM.
